Results: ChEMBL document CHEMBL1153657, “2-[4-(o-methoxyphenyl)piperazin-1-ylmethyl]-1,3-dioxoperhydroimidazo[1,5-a]pyridine as a new selective 5-HT1A receptor ligand” (Bioorg Med Chem Lett, 1996)

What was measured:
[1] = target: T1, Adrenergic receptor alpha-1 (Rattus norvegicus, UniProt P15823+P23944+P43140); assay: Binding affinity at Alpha-1 adrenergic receptor in rat cerebral cortex membranes by [3H]prazosin displacement.; assay type: cell membranes, Membrane
T1 sequence (P15823 whole entry): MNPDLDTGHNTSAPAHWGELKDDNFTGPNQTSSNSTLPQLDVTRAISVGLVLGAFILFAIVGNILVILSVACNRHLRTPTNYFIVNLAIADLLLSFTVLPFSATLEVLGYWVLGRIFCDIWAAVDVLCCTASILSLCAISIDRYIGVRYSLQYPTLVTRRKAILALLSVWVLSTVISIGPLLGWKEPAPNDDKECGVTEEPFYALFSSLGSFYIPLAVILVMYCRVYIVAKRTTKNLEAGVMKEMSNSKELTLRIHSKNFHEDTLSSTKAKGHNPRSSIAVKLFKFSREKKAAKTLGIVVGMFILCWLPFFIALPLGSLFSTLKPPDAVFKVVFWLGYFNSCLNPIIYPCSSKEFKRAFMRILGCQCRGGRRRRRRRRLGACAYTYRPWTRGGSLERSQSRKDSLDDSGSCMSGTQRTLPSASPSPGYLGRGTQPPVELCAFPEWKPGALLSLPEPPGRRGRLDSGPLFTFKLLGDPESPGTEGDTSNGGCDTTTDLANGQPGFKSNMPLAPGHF
T1 sequence (P23944 whole entry): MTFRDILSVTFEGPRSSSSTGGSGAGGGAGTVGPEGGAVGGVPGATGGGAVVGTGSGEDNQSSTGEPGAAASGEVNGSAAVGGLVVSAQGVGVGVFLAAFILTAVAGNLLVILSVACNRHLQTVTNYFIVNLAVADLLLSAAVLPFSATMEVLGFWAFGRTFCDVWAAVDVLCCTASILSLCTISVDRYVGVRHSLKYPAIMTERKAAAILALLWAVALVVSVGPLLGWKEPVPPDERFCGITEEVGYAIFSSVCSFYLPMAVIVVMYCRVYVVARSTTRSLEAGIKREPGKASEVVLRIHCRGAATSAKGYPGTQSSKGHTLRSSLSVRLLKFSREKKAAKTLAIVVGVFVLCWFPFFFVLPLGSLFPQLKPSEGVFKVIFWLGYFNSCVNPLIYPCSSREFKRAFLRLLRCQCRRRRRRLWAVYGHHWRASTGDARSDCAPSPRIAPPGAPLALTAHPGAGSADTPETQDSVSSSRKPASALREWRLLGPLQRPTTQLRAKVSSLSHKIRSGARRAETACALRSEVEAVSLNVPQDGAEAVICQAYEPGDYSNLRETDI
T1 sequence (P43140 whole entry): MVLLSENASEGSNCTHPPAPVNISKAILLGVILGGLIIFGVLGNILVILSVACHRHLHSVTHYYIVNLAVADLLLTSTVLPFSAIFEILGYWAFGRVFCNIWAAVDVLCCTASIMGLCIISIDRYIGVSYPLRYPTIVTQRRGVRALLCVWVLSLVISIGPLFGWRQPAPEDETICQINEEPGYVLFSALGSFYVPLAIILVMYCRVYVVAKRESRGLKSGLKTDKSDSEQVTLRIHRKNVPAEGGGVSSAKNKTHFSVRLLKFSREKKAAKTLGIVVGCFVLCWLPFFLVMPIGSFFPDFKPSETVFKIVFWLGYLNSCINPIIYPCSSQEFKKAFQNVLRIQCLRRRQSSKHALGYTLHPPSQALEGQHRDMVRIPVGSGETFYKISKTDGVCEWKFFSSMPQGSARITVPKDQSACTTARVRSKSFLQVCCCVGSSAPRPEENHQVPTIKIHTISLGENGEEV

[2] = target: T2, 5-hydroxytryptamine receptor 1A (Rattus norvegicus, UniProt P19327); assay: Compound was evaluated for its ability to displace [3H]8-OH-DPAT from serotonin 5-hydroxytryptamine 1A receptor in rat cerebral cortex membranes; assay type: cell membranes, Membrane
T2 sequence (P19327 whole entry): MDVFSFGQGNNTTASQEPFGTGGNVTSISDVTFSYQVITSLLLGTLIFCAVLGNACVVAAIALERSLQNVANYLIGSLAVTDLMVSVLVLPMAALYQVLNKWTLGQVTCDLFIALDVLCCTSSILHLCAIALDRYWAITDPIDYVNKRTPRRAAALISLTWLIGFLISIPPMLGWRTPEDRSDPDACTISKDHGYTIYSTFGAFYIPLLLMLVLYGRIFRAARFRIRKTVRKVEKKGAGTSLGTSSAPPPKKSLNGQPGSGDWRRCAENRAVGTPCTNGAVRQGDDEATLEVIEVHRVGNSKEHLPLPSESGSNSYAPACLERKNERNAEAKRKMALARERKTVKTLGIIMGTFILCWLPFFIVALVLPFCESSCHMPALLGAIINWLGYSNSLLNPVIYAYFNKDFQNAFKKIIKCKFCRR

[3] = target: 5-hydroxytryptamine receptor 2A (Rattus norvegicus, UniProt P14842); assay: Compound was evaluated for binding affinity against 5-hydroxytryptamine 2A receptor using [3H]ketanserin as a radioligand
Chain of 5-hydroxytryptamine receptor 2A (P14842 whole entry): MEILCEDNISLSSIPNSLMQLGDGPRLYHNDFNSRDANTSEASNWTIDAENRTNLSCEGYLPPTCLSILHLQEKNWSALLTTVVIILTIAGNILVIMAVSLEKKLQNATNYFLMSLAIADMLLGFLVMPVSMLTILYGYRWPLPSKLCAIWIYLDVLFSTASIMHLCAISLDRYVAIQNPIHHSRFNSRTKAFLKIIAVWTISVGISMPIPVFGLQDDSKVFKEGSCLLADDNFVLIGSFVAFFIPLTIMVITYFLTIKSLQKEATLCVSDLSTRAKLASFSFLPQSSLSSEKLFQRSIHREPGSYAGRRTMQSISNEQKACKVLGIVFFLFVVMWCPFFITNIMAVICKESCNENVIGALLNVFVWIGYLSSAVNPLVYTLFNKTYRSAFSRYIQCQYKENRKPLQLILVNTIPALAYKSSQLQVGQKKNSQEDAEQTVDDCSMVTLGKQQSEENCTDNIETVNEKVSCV

Ki [1] [nM] | IC50 [2] [nM] | Structure (SMILES) | also measured
130 |  | COc1ccccc1N1CCN(CCN2C(=O)c3ccccc3C2=O)CC1 | 
33 |  | COc1ccccc1N1CCN(CCCN2C(=O)c3ccccc3C2=O)CC1 | 
 | 2 | COc1ccccc1N1CCN(CCCCN2C(=O)CC3(CCCC3)CC2=O)CC1 | 
 |  | COc1ccccc1N1CCN(CN2C(=O)C3CCCCN3C2=O)CC1 (stereo not given) | Ki [3]: 1000 nM
 | 80 | COc1ccccc1N1CCN(CCCN2C(=O)CC3(CCCC3)CC2=O)CC1 | 
